Holding throughout (type): biochemical
One assay concerns the target adenosine A2B receptor (Homo sapiens (Human), UniProt P29275). Description: Adenosine receptor activity assay (Table 1), A2B activity. The following applies: for Ratio: A2A activity to the A2B activity, A2A/A2B; for IC50: read-out: Ave A2B cAMP IC50.
The target in the next assay is adenosine A3 receptor (Homo sapiens (Human), UniProt P0DMS8). Description: Adenosine receptor activity assay (Table 1), A3 cAMP. On the procedure: (§1) Table 1. Compounds (e.g., Adenosine Receptor modulators) and activity assay results. The legend is as follows: A=<10 nM; B=10-50 nM; C=50-100 nM; D=100-500; and E=>500 nM. The ratio corresponds to the A2A activity to the A2B activity; or A2A/A2B.

The target in another assay is adenosine A1 receptor (Homo sapiens (Human), UniProt P30542). Description: Adenosine receptor activity assay (Table 1), A1 cAMP. On the procedure:
as §1

Another assay concerns the target adenosine A2A receptor (Homo sapiens (Human), UniProt P29274). Description: Adenosine receptor activity assay (Table 1), A2A activity. The following applies: read-out: Ave A2A cAMP IC50.

Sequence of adenosine A3 receptor (P0DMS8 whole entry): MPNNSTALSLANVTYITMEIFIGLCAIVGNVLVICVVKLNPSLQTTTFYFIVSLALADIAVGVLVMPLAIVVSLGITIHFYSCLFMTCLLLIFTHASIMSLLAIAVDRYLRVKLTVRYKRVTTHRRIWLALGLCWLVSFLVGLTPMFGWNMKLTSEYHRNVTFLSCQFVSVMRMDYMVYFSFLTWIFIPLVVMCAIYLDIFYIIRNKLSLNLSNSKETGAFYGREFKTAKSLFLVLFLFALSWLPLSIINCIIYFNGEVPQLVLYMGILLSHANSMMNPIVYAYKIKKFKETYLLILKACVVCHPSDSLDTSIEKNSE
Sequence of adenosine A2B receptor (P29275 whole entry): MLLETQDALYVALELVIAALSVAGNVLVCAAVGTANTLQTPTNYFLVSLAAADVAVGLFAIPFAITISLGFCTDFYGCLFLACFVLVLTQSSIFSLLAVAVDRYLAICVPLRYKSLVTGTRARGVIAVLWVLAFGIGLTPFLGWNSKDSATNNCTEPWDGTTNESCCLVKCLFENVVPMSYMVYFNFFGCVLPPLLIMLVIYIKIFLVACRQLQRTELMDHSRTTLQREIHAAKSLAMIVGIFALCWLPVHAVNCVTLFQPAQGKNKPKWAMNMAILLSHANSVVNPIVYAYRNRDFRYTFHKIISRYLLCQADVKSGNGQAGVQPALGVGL
Sequence of adenosine A1 receptor (P30542 whole entry): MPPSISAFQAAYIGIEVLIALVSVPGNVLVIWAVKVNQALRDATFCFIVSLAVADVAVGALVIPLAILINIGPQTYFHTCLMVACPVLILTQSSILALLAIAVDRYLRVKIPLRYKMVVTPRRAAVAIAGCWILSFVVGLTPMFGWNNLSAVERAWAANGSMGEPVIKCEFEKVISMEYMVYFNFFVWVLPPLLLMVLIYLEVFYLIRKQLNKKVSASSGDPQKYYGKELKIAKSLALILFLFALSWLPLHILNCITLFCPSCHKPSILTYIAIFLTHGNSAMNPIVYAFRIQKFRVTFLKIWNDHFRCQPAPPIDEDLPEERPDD
Sequence of adenosine A2A receptor (P29274 whole entry): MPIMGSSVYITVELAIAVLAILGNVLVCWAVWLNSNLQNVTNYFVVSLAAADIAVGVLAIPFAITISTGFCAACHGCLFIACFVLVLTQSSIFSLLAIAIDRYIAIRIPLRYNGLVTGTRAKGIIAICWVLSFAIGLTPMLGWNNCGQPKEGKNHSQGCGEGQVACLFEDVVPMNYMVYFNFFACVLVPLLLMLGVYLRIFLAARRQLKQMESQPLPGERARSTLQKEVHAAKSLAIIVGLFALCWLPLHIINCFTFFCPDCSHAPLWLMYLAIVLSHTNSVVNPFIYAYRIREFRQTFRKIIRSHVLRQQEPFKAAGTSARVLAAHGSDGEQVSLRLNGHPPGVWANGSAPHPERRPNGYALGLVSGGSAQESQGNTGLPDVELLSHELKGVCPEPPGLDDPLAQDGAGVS

Turning to `CCNC(=O)c1ccc(CCNC(=O)c2nc(N[C@@H](C)c3cncc(F)c3)nc3cc(C)sc23)cc1` [Example Z506, (S)—N-(4-(Ethylcarbamoyl)phenethyl)-2-((1-(5-fluoropyridin-3-yl)ethyl)amino)-6-methylthieno[3,2-d]pyrimidine-4-carboxamide], the Ratio on adenosine A2B receptor worked out at 22.42. Also, the IC50 at adenosine A2B receptor is 10 to 50 nM; on adenosine A3 receptor, over 500 nM; on adenosine A1 receptor, over 500 nM; at adenosine A2A receptor, over 500 nM.

`CCOC(=O)N(C)C1CN(C(=O)c2nc(N[C@@H](C)c3cncc(F)c3)nc3cc(C)sc23)C1` [Example Z507, Ethyl (S)-(1-(2-((1-(5-fluoropyridin-3-yl)ethyl)amino)-6-methylthieno[3,2-d]pyrimidine-4-carbonyl)azetidin-3-yl)(methyl)carbamate]: the Ratio on adenosine A2B receptor is on record as 5.66. Also, the IC50 on adenosine A2B receptor is 10 to 50 nM; at adenosine A3 receptor, over 500 nM; on adenosine A1 receptor, over 500 nM; at adenosine A2A receptor, 50 to 100 nM.

Consider `Cc1cc2nc(N[C@@H](C)c3cncc(F)c3)nc(C(=O)N3CC(N(C)C(=O)CC(C)(C)C)C3)c2s1` [Example Z508, (S)—N-(1-(2-((1-(5-Fluoropyridin-3-yl)ethyl)amino)-6-methylthieno[3,2-d]pyrimidine-4-carbonyl)azetidin-3-yl)-N,3,3-trimethylbutanamide], for which, on adenosine A2B receptor, the Ratio is 1.06. For the same molecule, the 50% inhibitory concentration (IC50) on adenosine A2B receptor is 10 to 50 nM; at adenosine A3 receptor, over 500 nM; at adenosine A1 receptor it was over 500 nM; on adenosine A2A receptor, 10 to 50 nM.

For the molecule `CC(=O)N(C)C1CN(C(=O)c2nc(N[C@@H](C)c3cncc(F)c3)nc3cc(C)sc23)C1` [Example Z509, (S)—N-(1-(2-((1-(5-Fluoropyridin-3-yl)ethyl)amino)-6-methylthieno[3,2-d]pyrimidine-4-carbonyl)azetidin-3-yl)-N-methylacetamide], the Ratio at adenosine A2B receptor is 80.91. Also, the IC50 on adenosine A2B receptor is under 10 nM; against adenosine A3 receptor it was over 500 nM; against adenosine A1 receptor, over 500 nM; at adenosine A2A receptor, over 500 nM.

In the case of `CC(C)OC(=O)NC1CN(C(=O)c2nc(N[C@@H](C)c3cncc(F)c3)nc3ccsc23)C1` [Example Z510, Isopropyl (S)-(1-(2-((1-(5-fluoropyridin-3-yl)ethyl)amino)thieno[3,2-d]pyrimidine-4-carbonyl)azetidin-3-yl)carbamate], the Ratio at adenosine A2B receptor stood at 2.03. Moreover, the IC50 on adenosine A2B receptor is 10 to 50 nM; against adenosine A3 receptor it was over 500 nM; against adenosine A1 receptor, over 500 nM; at adenosine A2A receptor, 10 to 50 nM.

With `Cc1cc2nc(N[C@@H](C)c3cncc(F)c3)nc(C(=O)N3CC(NC(=O)OC(C)C)C3)c2s1` [Example Z511, Isopropyl (S)-(1-(2-((1-(5-fluoropyridin-3-yl)ethyl)amino)-6-methylthieno[3,2-d]pyrimidine-4-carbonyl)azetidin-3-yl)carbamate], the Ratio on adenosine A2B receptor is given as 2.90. The IC50 is 10 to 50 nM at adenosine A2B receptor, 50 to 100 nM on adenosine A3 receptor, over 500 nM on adenosine A1 receptor and 10 to 50 nM on adenosine A2A receptor.

In the case of `Cc1cc2nc(N[C@@H](C)c3cncc(F)c3)nc(C(=O)N3CC(NC(=O)CNC(=O)c4ccccc4)C3)c2s1` [Example Z512, (S)—N-(2-((1-(2-((1-(5-Fluoropyridin-3-yl)ethyl)amino)-6-methylthieno[3,2-d]pyrimidine-4-carbonyl)azetidin-3-yl)amino)-2-oxoethyl)benzamide], the Ratio on adenosine A2B receptor was found to be 33.02. Besides, the IC50 on adenosine A2B receptor is 10 to 50 nM; on adenosine A3 receptor, over 500 nM; against adenosine A1 receptor, over 500 nM; on adenosine A2A receptor, over 500 nM.

Consider `Cc1cc2nc(N[C@@H](C)c3cncc(F)c3)nc(C(=O)N3CC(NC(=O)C(C)(C)C)C3)c2s1` [Example Z513, (S)—N-(1-(2-((1-(5-Fluoropyridin-3-yl)ethyl)amino)-6-methylthieno[3,2-d]pyrimidine-4-carbonyl)azetidin-3-yl)pivalamide], for which the Ratio on adenosine A2B receptor came to 0.18. Further, the IC50 at adenosine A2B receptor was 10 to 50 nM; on adenosine A3 receptor, 10 to 50 nM; against adenosine A1 receptor, 100 to 500 nM; at adenosine A2A receptor, under 10 nM.

In the case of `Cc1cc2nc(N[C@@H](C)c3cccnc3)nc(C(=O)N3CC(CO)C3)c2s1` [Example Z515, (S)-(3-(Hydroxymethyl)azetidin-1-yl)(6-methyl-2-((1-(pyridin-3-yl)ethyl)amino)thieno[3,2-d]pyrimidin-4-yl)methanone], the Ratio on adenosine A2B receptor is 53.11. Also, the IC50 on adenosine A2B receptor is 10 to 50 nM; at adenosine A3 receptor it was over 500 nM; against adenosine A1 receptor it was over 500 nM; on adenosine A2A receptor, over 500 nM.

`COCCC(=O)NC1CN(C(=O)c2nc(N[C@@H](C)c3cncc(F)c3)nc3cc(C)sc23)C1` [Example Z518, (S)—N-(1-(2-((1-(5-Fluoropyridin-3-yl)ethyl)amino)-6-methylthieno[3,2-d]pyrimidine-4-carbonyl)azetidin-3-yl)-3-methoxypropanamide]: the Ratio on adenosine A2B receptor is recorded as 5.46. The IC50 on adenosine A2B receptor was under 10 nM; on adenosine A3 receptor, over 500 nM; at adenosine A1 receptor it was over 500 nM; at adenosine A2A receptor, 10 to 50 nM.

Consider `C[C@H](Nc1nc(C(=O)N2CC(NC(=O)C3CCOC3)C2)c2sccc2n1)c1cncc(F)c1` (stereo partly drawn) [Example Z519, N-(1-(2-(((S)-1-(5-Fluoropyridin-3-yl)ethyl)amino)thieno[3,2-d]pyrimidine-4-carbonyl)azetidin-3-yl)tetrahydrofuran-3-carboxamide], for which, at adenosine A2B receptor, the Ratio turned out to be 3.87. In addition, the IC50 on adenosine A2B receptor was under 10 nM; against adenosine A3 receptor, over 500 nM; against adenosine A1 receptor, over 500 nM; on adenosine A2A receptor, 10 to 50 nM.

As for `CCNC(=O)C1CCN(C(=O)c2nc(N[C@@H](C)c3cncc(F)c3)nc3ccsc23)C1` (stereo partly drawn) [Example Z520, N-Ethyl-1-(2-(((S)-1-(5-fluoropyridin-3-yl)ethyl)amino)thieno[3,2-d]pyrimidine-4-carbonyl)pyrrolidine-3-carboxamide], the Ratio at adenosine A2B receptor was 27.57. The IC50 on adenosine A2B receptor is under 10 nM; at adenosine A3 receptor, over 500 nM; against adenosine A1 receptor, over 500 nM; on adenosine A2A receptor, 100 to 500 nM.

With `Cc1cc2nc(N[C@@H](C)c3cncc(F)c3)nc(C(=O)N3CC(NC(=O)C4CC4)C3)c2s1` [Example Z522, (S)—N-(1-(2-((1-(5-Fluoropyridin-3-yl)ethyl)amino)-6-methylthieno[3,2-d]pyrimidine-4-carbonyl)azetidin-3-yl)cyclopropanecarboxamide], the Ratio on adenosine A2B receptor is 1.58. Further, the IC50 on adenosine A2B receptor was under 10 nM; on adenosine A3 receptor, 100 to 500 nM; against adenosine A1 receptor it was over 500 nM; on adenosine A2A receptor, 10 to 50 nM.

On to `Cc1cc2nc(N[C@@H](C)c3cncc(F)c3)nc(C(=O)N3CC(NC(=O)C4CCOC4)C3)c2s1` (stereo partly drawn) [Example Z523, N-(1-(2-(((S)-1-(5-Fluoropyridin-3-yl)ethyl)amino)-6-methylthieno[3,2-d]pyrimidine-4-carbonyl)azetidin-3-yl)tetrahydrofuran-3-carboxamide], for which, on adenosine A2B receptor, the Ratio is reported as 1.40. Besides, the IC50 at adenosine A2B receptor was under 10 nM; against adenosine A3 receptor, 100 to 500 nM; at adenosine A1 receptor, over 500 nM; on adenosine A2A receptor, 10 to 50 nM.

Take `CC1CCN1C(=O)c1nc(N[C@@H](C)c2cncc(F)c2)nc2ccsc12` (stereo partly drawn) [Example Z524, (2-(((S)-1-(5-Fluoropyridin-3-yl)ethyl)amino)thieno[3,2-d]pyrimidin-4-yl)(2-methylazetidin-1-yl)methanone]: at adenosine A2B receptor, the Ratio was 11.94. In addition, the IC50 was under 10 nM on adenosine A2B receptor, over 500 nM on adenosine A3 receptor, over 500 nM against adenosine A1 receptor and 50 to 100 nM at adenosine A2A receptor.

Consider `CC(C)(C)C(=O)N[C@H]1CCN(C(=O)c2nc(NCc3cncc(F)c3)nc3ccsc23)C1` [Example Z526, (S)—N-(1-(2-(((5-Fluoropyridin-3-yl)methyl)amino)thieno[3,2-d]pyrimidine-4-carbonyl)pyrrolidin-3-yl)pivalamide], for which the Ratio on adenosine A2B receptor is given as 4.26. For the same molecule, the IC50 on adenosine A2B receptor is 10 to 50 nM; against adenosine A3 receptor, over 500 nM; against adenosine A1 receptor it was over 500 nM; on adenosine A2A receptor it was 50 to 100 nM.

Regarding `CC(=O)NCC1CN(C(=O)c2nc(N[C@@H](C)c3cncc(F)c3)nc3ccsc23)C1` [Example Z528, (S)—N-((1-(2-((1-(5-Fluoropyridin-3-yl)ethyl)amino)thieno[3,2-d]pyrimidine-4-carbonyl)azetidin-3-yl)methyl)acetamide], the Ratio on adenosine A2B receptor worked out at 44.92. The IC50 at adenosine A2B receptor was under 10 nM; on adenosine A3 receptor it was over 500 nM; against adenosine A1 receptor, over 500 nM; on adenosine A2A receptor, 100 to 500 nM.

For the molecule `C[C@H](Nc1nc(C(=O)N2CC(CNC(=O)C(C)(C)C)C2)c2sccc2n1)c1cncc(F)c1` [Example Z529, (S)—N-((1-(2-((1-(5-Fluoropyridin-3-yl)ethyl)amino)thieno[3,2-d]pyrimidine-4-carbonyl)azetidin-3-yl)methyl)pivalamide], the Ratio at adenosine A2B receptor was 4.15. For the same molecule, the 50% inhibitory concentration (IC50) was 10 to 50 nM at adenosine A2B receptor, over 500 nM against adenosine A3 receptor, over 500 nM against adenosine A1 receptor and 100 to 500 nM at adenosine A2A receptor.

Take `CC(=O)NC1CN(C(=O)c2nc(N[C@@H](C)c3cncc(F)c3)nc3ccsc23)C1` [Example Z530, (S)—N-(1-(2-((1-(5-Fluoropyridin-3-yl)ethyl)amino)thieno[3,2-d]pyrimidine-4-carbonyl)azetidin-3-yl)acetamide]: the Ratio at adenosine A2B receptor is 6.99. Further, the IC50 on adenosine A2B receptor was 10 to 50 nM; on adenosine A3 receptor it was over 500 nM; against adenosine A1 receptor, over 500 nM; on adenosine A2A receptor, 100 to 500 nM.

Values taken from patent US11254686B1 (Corvus Pharmaceuticals, Inc., priority 2017, dated 2022).
